Laboratory results reported in patent US11214803B2, “Modulators of YAP1 expression” (Ionis Pharmaceuticals, Inc., priority 2019, dated 2022).
Strand notation (5' to 3'): a small letter for the sugar, then the base; units joined by * are phosphorothioate-linked, units joined directly phosphodiester-linked; [ ] holds rarer units or linkages, { } end groups; capitals alone tell only the bases. k = constrained ethyl (cEt); [5mC] = 5-methylcytosine; d = 2'-deoxy (DNA)

These substances were tested on Yap1 mRNA (assay: Antisense inhibition of human Yap1 in A-431 cells by cEt gapmers, single dose (Example 2, RTS4814)). Details: A-431 cells, 5,000 cells per well, free uptake, 2,000 nM modified oligonucleotide, approx. 48 hours, RTS4814, normalized to RIBOGREEN; Table 4; asterisk (*) = targets amplicon region of primer probe set.
Assay type: cell-based
How it was run: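 Each 16-nucleoside gapmer (ten-deoxy gap, three-cEt wings) is tested once at 2,000 nM in A-431 cells by free uptake. Yap1 mRNA after about 48 hours is measured by quantitative RT-PCR and expressed relative to untreated control.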

“716451 (k[5mC]*k[5mC]*k[5mC]*dA*dA*dG*d[5mC]*dT*dA*d[5mC]*dA*dA*d[5mC]*kT*kA*kT; antisense) [Compound 716451]” was tested, and the “YAP1 (% UTC)” value was 67 % UTC.

Same assay, conditions: Table 5; A-431 cells, 5,000 cells per well, free uptake, 2,000 nM modified oligonucleotide, approx. 48 hours; RTS4814; normalized to RIBOGREEN; Yap1 mRNA relative to untreated control cells

First: 716578 (kA*kA*k[5mC]*dT*dT*dT*d[5mC]*dA*d[5mC]*dA*dT*dA*dA*kA*k[5mC]*kT; antisense) [Compound 716578]
Second: 716506 (antisense kT*k[5mC]*kT*dG*d[5mC]*dA*dG*dT*dG*dG*d[5mC]*d[5mC]*dA*kT*kT*kT) [Compound 716506]
The “YAP1 (% UTC)” value of the first is higher: 102 % UTC for the first, 62 % UTC for the second.

In the case of “716554 (kA*kT*kG*d[5mC]*dT*dT*dG*d[5mC]*dG*dA*dG*dG*dA*kT*kA*kA; antisense) [Compound 716554]”, the “YAP1 (% UTC)” value is reported as 30 % UTC.

Same assay, conditions: Table 6; A-431 cells, 5,000 cells per well, free uptake, 2,000 nM modified oligonucleotide, approx. 48 hours; RTS4814; normalized to RIBOGREEN; Yap1 mRNA relative to untreated control cells

Going from “716513 (antisense kA*kA*kT*d[5mC]*dT*dT*dA*dA*dT*d[5mC]*dT*dG*dT*kG*kG*k[5mC]) [Compound 716513]” to “716504 (kA*kT*kA*dA*dA*dA*dG*d[5mC]*d[5mC]*dT*dT*dA*dG*kA*kG*kT; antisense) [Compound 716504]”, the “YAP1 (% UTC)” value rises from 30 % UTC to 112 % UTC.

“716516 (antisense kA*kA*k[5mC]*dT*dT*dT*d[5mC]*d[5mC]*d[5mC]*dA*d[5mC]*d[5mC]*d[5mC]*kT*k[5mC]*k[5mC]) [Compound 716516]” was tested, and the “YAP1 (% UTC)” value was 84 % UTC.

Same assay, conditions: Table 18; A-431 cells, 5,000 cells per well, free uptake, 2,000 nM modified oligonucleotide, approx. 48 hours; RTS4814; normalized to RIBOGREEN; Yap1 mRNA as percent of untreated control

“1075172 (antisense k[5mC]*kT*kT*dT*dA*d[5mC]*dA*dT*dG*dA*dA*d[5mC]*dT*kG*kA*kT) [Compound 1075172]” was tested, and the “YAP1 (% UTC)” value was 14 % UTC.

Same assay, conditions: Table 19; A-431 cells, 5,000 cells per well, free uptake, 2,000 nM modified oligonucleotide, approx. 48 hours; RTS4814; normalized to RIBOGREEN; Yap1 mRNA as percent of untreated control

“1074917 (antisense k[5mC]*kA*kA*dG*dT*dT*dA*d[5mC]*dA*dT*d[5mC]*d[5mC]*d[5mC]*kG*kA*kG) [Compound 1074917]” was tested, and the “YAP1 (% UTC)” value was 80 % UTC.

Same assay, conditions: Table 20; Yap1 mRNA, percent of untreated control; 3-10-3 cEt gapmers targeting SEQ ID NO.: 1 and 2

First: 1076358 (kG*kT*kT*dT*dA*dA*d[5mC]*dA*dA*dA*d[5mC]*dT*dT*kG*kT*kA; antisense) [Compound 1076358]
Second: 1076102 (k[5mC]*kT*kT*dA*dA*d[5mC]*dA*dA*dA*dT*d[5mC]*dA*dG*k[5mC]*k[5mC]*k[5mC]; antisense) [Compound 1076102]
The “YAP1 (% UTC)” value of the first is higher: 43 % UTC for the first, 32 % UTC for the second.

Compared with “1074278 (antisense k[5mC]*kT*kT*dG*dG*dG*dT*d[5mC]*dT*dA*dG*d[5mC]*d[5mC]*kA*kA*kG) [Compound 1074278]”, “1075366 (kA*k[5mC]*kA*d[5mC]*dG*dA*dA*dA*dA*dT*dA*dG*dT*kT*k[5mC]*kT; antisense) [Compound 1075366]” is lower in “YAP1 (% UTC)” value: 31 % UTC for the first, 27 % UTC for the second.

Same assay, conditions: Table 21; Yap1 mRNA, percent of untreated control; 3-10-3 cEt gapmers targeting SEQ ID NO.: 1 and 2

Going from “1075591 (kG*kT*kA*dA*dT*dA*dA*dT*d[5mC]*dA*d[5mC]*d[5mC]*dT*kT*kA*k[5mC]; antisense) [Compound 1075591]” to “1074247 (antisense kA*kT*k[5mC]*dG*dA*dT*dG*dT*dG*dA*dT*dT*dT*kA*kA*kG) [Compound 1074247]”, the “YAP1 (% UTC)” value falls from 76 % UTC to 43 % UTC.

“1075367 (k[5mC]*kA*kT*dT*dA*d[5mC]*dT*dT*dA*dG*dG*dG*d[5mC]*kT*kT*kA; antisense) [Compound 1075367]” was tested, and the “YAP1 (% UTC)” value was 12 % UTC.

Same assay, conditions: Table 22; Yap1 mRNA as percent of untreated control; 3-10-3 cEt gapmers; single dose

Going from “1075720 (k[5mC]*kT*kT*dT*dA*d[5mC]*dT*dA*d[5mC]*dA*dT*dA*dT*kA*kG*k[5mC]; antisense) [Compound 1075720]” to “1075944 (kT*kA*kT*dT*dA*dG*dG*dA*dA*d[5mC]*dA*dG*dA*kT*k[5mC]*kA; antisense) [Compound 1075944]”, the “YAP1 (% UTC)” value falls from 47 % UTC to 25 % UTC.

First: 1076488 (antisense kG*k[5mC]*k[5mC]*dA*dA*dT*dA*dA*dG*dA*dT*dA*dA*kG*kA*kA) [Compound 1076488]
Second: 1076424 (kA*k[5mC]*kT*dT*dA*dA*d[5mC]*d[5mC]*dT*dG*dA*d[5mC]*dA*kG*k[5mC]*kT; antisense) [Compound 1076424]
The “YAP1 (% UTC)” value of the first is lower: 19 % UTC for the first, 76 % UTC for the second.

Same assay, conditions: Table 23; Yap1 mRNA as percent of untreated control; 3-10-3 cEt gapmers; single dose

First: 1074921 (antisense k[5mC]*kA*k[5mC]*dT*d[5mC]*dA*dA*dG*dT*dT*dA*d[5mC]*dA*kT*k[5mC]*k[5mC]) [Compound 1074921]
Second: 1074953 (antisense kG*kG*kG*dT*dT*dT*dT*dT*dG*dT*d[5mC]*dA*dT*k[5mC]*kA*kG) [Compound 1074953]
The “YAP1 (% UTC)” value of the first is higher: 65 % UTC for the first, 32 % UTC for the second.

Compared with “1075881 (kG*kA*kT*dT*dA*dA*d[5mC]*dT*dA*d[5mC]*dA*d[5mC]*d[5mC]*kA*k[5mC]*kG; antisense) [Compound 1075881]”, “1074505 (kA*kA*kT*d[5mC]*dG*dA*dG*dA*dT*dT*dT*dA*dA*kA*kT*kA; antisense) [Compound 1074505]” is higher in “YAP1 (% UTC)” value: 23 % UTC for the first, 83 % UTC for the second.

In the case of “1074313 (antisense kT*kG*kA*dT*dA*dT*dT*d[5mC]*d[5mC]*dG*d[5mC]*dA*dT*kT*kG*k[5mC]) [Compound 1074313]”, the “YAP1 (% UTC)” value is reported as 5 % UTC.

Same assay, conditions: Table 24; Yap1 mRNA as percent of untreated control; 3-10-3 cEt gapmers targeting SEQ ID NO.: 1, and 2

Going from “1074314 (antisense kA*kT*kT*dG*dA*dT*dA*dT*dT*d[5mC]*d[5mC]*dG*d[5mC]*kA*kT*kT) [Compound 1074314]” to “1075530 (kG*kA*kA*dA*dT*d[5mC]*dG*dA*dA*dG*dG*dG*d[5mC]*kA*kA*kA; antisense) [Compound 1075530]”, the “YAP1 (% UTC)” value rises from 12 % UTC to 30 % UTC.

Same assay, conditions: Table 25; Yap1 mRNA as percent of untreated control; 3-10-3 cEt gapmers targeting SEQ ID NO.: 1, and 2

Going from “1074891 (antisense kT*kG*kA*dA*dG*dT*dT*dT*dA*dG*d[5mC]*d[5mC]*dT*kG*kA*kA) [Compound 1074891]” to “1075051 (antisense kA*kA*kT*dA*dA*dA*d[5mC]*dA*dA*d[5mC]*d[5mC]*d[5mC]*dA*kA*k[5mC]*kG) [Compound 1075051]”, the “YAP1 (% UTC)” value rises from 31 % UTC to 56 % UTC.

Same assay, conditions: Table 32; Yap1 mRNA, percent of untreated control; 3-10-3 cEt gapmers targeting SEQ ID NO.: 1, and 2

Compared with “1076146 (kG*k[5mC]*kT*dA*dA*dA*dA*d[5mC]*dT*dT*dT*d[5mC]*dA*kT*k[5mC]*k[5mC]; antisense) [compound 1076146]”, “1074322 (antisense kA*kG*kG*dG*d[5mC]*dT*dA*dA*d[5mC]*dT*d[5mC]*d[5mC]*dT*kG*kA*k[5mC]) [compound 1074322]” is higher in “YAP1 (% UTC)” value: 23 % UTC for the first, 94 % UTC for the second.

First: 1074130 (kA*kT*k[5mC]*d[5mC]*d[5mC]*d[5mC]*d[5mC]*dG*d[5mC]*d[5mC]*d[5mC]*d[5mC]*dG*kG*k[5mC]*kG; antisense) [compound 1074130]
Second: 1075122 (kG*kA*kA*dA*dA*dT*dT*dA*dG*d[5mC]*d[5mC]*dT*dA*k[5mC]*k[5mC]*kA; antisense) [compound 1075122]
The “YAP1 (% UTC)” value of the first is higher: 119 % UTC for the first, 16 % UTC for the second.

Same assay, conditions: Table 33; Yap1 mRNA, percent of untreated control; 3-10-3 cEt gapmers targeting SEQ ID NO.: 1, and 2

Going from “1074195 (antisense k[5mC]*k[5mC]*k[5mC]*dG*dG*dG*dT*d[5mC]*d[5mC]*dG*dG*dA*d[5mC]*kG*kG*k[5mC]) [compound 1074195]” to “1074355 (antisense kA*kG*kG*dG*dA*d[5mC]*dA*d[5mC]*dT*dG*dT*dA*dG*k[5mC]*kT*kG) [compound 1074355]”, the “YAP1 (% UTC)” value falls from 79 % UTC to 55 % UTC.

Going from “1076211 (kA*kA*kT*dT*dT*dA*dT*dA*dT*dG*d[5mC]*dT*d[5mC]*k[5mC]*k[5mC]*kT; antisense) [compound 1076211]” to “1074995 (antisense kA*kA*kA*dA*d[5mC]*dT*dA*dA*dA*dT*dG*dG*dA*k[5mC]*k[5mC]*kG) [compound 1074995]”, the “YAP1 (% UTC)” value rises from 22 % UTC to 50 % UTC.

Same assay, conditions: Yap1 mRNA as percent of untreated control; A-431 cells; 3-10-3 cEt gapmers targeting SEQ ID NO.: 1, and 2; Table 30

Compared with “1074864 (k[5mC]*kA*kT*dA*dT*dG*dA*dG*d[5mC]*dA*dT*dG*d[5mC]*kT*k[5mC]*kT; antisense) [compound 1074864]”, “1074320 (antisense kG*kG*k[5mC]*dT*dA*dA*d[5mC]*dT*d[5mC]*d[5mC]*dT*dG*dA*k[5mC]*kA*kT) [compound 1074320]” is higher in “YAP1 (% UTC)” value: 47 % UTC for the first, 80 % UTC for the second.

First: 1076176 (k[5mC]*kT*k[5mC]*d[5mC]*dA*dA*dT*dA*dG*dG*dT*dA*dA*k[5mC]*kA*kG; antisense) [compound 1076176]
Second: 1075440 (antisense kA*kA*kA*dT*dT*dA*dT*dT*dA*dG*dT*dT*dG*kT*k[5mC]*kG) [compound 1075440]
The “YAP1 (% UTC)” value of the first is higher: 43 % UTC for the first, 28 % UTC for the second.

Same assay, conditions: Yap1 mRNA as percent of untreated control; A-431 cells; 3-10-3 cEt gapmers targeting SEQ ID NO.: 1, and 2; Table 31

First: 1075921 (antisense kG*kA*kA*dA*dG*dA*dA*dA*dG*d[5mC]*dT*dG*d[5mC]*kG*k[5mC]*kA) [compound 1075921]
Second: 1076113 (kT*kG*kA*d[5mC]*dA*dA*dT*dA*dG*d[5mC]*d[5mC]*dA*dA*kT*kG*k[5mC]; antisense) [compound 1076113]
The “YAP1 (% UTC)” value of the first is higher: 93 % UTC for the first, 16 % UTC for the second.

Compared with “1076177 (k[5mC]*kT*kT*dT*dA*dT*dT*dT*d[5mC]*d[5mC]*d[5mC]*dA*d[5mC]*k[5mC]*k[5mC]*kG; antisense) [compound 1076177]”, “1074897 (antisense kG*kG*k[5mC]*dA*dA*dA*dG*dT*dT*d[5mC]*d[5mC]*dT*dA*kT*kG*k[5mC]) [compound 1074897]” is higher in “YAP1 (% UTC)” value: 37 % UTC for the first, 76 % UTC for the second.
